Assay results reported in patent US20250092065A1, “2-(INDAZOL-5-YL)-6-(PIPERIDIN-4-YL)-1,7-NAPHTHYRIDINE DERIVATIVES AND RELATED COMPOUNDS AS MODULATORS FOR SPLICING NUCLEIC ACIDS AND FOR THE TREATMENT OF PROLIFERATIVE DISEASES” (REMIX THERAPEUTICS INC., priority 2022, published 2025).
Where two headings read alike, the source gives them in different places.

Columns and labels:
HTT = test: HiBiT protein abundance assay, HTT (K562 HiBiT knock-in); type: cell-based, human; conditions: HiBiT knock-in K562 cells, 24 hours, top dose 10 μM
How it was run: (§1)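 Endogenously HiBiT-tagged K562 lines were treated for 24 h at 37 °C with 10-point 3-fold dilutions (top 10 μM final, DMSO ≤0.25%). Lytic LgBiT complementation luminescence was normalized between unmodified K562 (PC) and DMSO-treated tagged cells (NC); IC50 was interpolated at 50% from a four-parameter logistic fit.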

MYB mRNA = test: RT-qPCR splicing assay, MYB mRNA canonical (CJ) and alternative (AJ) junction; type: cell-based, human; conditions: Homo sapiens; for AC50: MYB alternative junction mRNA, read-out: MYB AJ (increase in AJ mRNA, AC50)
How it was run: (§2)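 Canonical and alternative-exon junction isoforms were quantified by RT-qPCR in cell lysates, with ΔCt against a housekeeper (GAPDH/GUSB/PPIA), then ΔΔCt vs DMSO, converted to 2^(−ΔΔCt) and percent response. K562 or A673 cells were exposed for 24 h to 11 concentrations (3-fold, top final 10 uM).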

K562 cells = test: Cell Titer Glo 2.0 cell viability (toxicity) assay, K562; conditions: 500 cells/well, 72 hours
SMN2 mRNA = test: RT-qPCR splicing assay, SMN2 mRNA; type: cell-based, human; conditions: Homo sapiens, canonical junction qPCR panel, Table 4; read-out: SMN2 IC50 (decrease in CJ mRNA levels)
How it was run: as §2

Target C = test: HiBiT protein abundance assay, Target C (K562 HiBiT knock-in); type: cell-based, human; conditions: HiBiT knock-in K562 cells, 24 hours, top dose 10 μM
How it was run: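 K562 HiBiT knock-in cells (10000/well) were treated 24 h at 37° C with a 10-point 3-fold dilution series (top 10 μM final, ≤0.25% DMSO). HiBiT luminescence was read after lytic LgBiT detection. Percent response used unmodified K562 and DMSO-treated knock-in controls, and IC50 came from a four-parameter fit at 50% of untreated.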

HTT mRNA = test: RT-qPCR splicing assay, HTT mRNA canonical (CJ) and alternative (AJ) junction; type: cell-based, human; conditions: Homo sapiens; for AC50: HTT alternative junction mRNA, read-out: HTT AJ (increase in AJ mRNA, AC50)
How it was run: as §2

MYB = test: HiBiT protein abundance assay, MYB (K562 HiBiT knock-in); type: cell-based, human; conditions: HiBiT knock-in K562 cells, 24 hours, top dose 10 μM
How it was run: as §1

[1] = MYB canonical junction mRNA, RT-qPCR, read-out: MYB CJ (decrease in CJ mRNA levels, IC50)
[2] = canonical junction qPCR panel, Table 4, read-out: MYB IC50 (decrease in CJ mRNA levels)
[3] = HTT canonical junction mRNA, RT-qPCR, read-out: HTT CJ (decrease in CJ mRNA levels, IC50)
[4] = canonical junction qPCR panel, Table 4, read-out: HTT IC50 (decrease in CJ mRNA levels)

Row | Structure (SMILES) | IC50 (HTT) [µM] | IC50 (MYB mRNA; [1]) [µM] | IC50 (MYB mRNA; [2]) [µM] | IC50 (SMN2 mRNA) [µM] | IC50 (Target C) [µM] | IC50 (HTT mRNA; [3]) [µM] | IC50 (HTT mRNA; [4]) [µM] | IC50 (MYB) [µM] | AC50 (MYB mRNA; RT-qPCR) [µM] | Effect of Exemplary Compounds on Cell Viability, K562 (K562 cells) | AC50 (HTT mRNA; RT-qPCR) [µM]
1 | Cn1cc2cc(O)c(-c3ccc4nc(C5CCNCC5)ccc4n3)cc2n1 [Compound 146] | 1 to 10 | 1 to 10 | 1 to 10 | 0.1 to 1 | 1 to 10 | 1 to 10 | 1 to 10 | 1 to 10 | 1 to 10 | C (C represents 1000-9999 nM) | 1 to 10
2 | Cc1nc2cc(O)c(-c3ccc4nc(C5CCNCC5)ccc4n3)cc2s1 [Compound 148] | 1 to 10 | 0.1 to 1 | 0.1 to 1 | < 0.1 | 1 to 10 | 1 to 10 | 1 to 10 | 1 to 10 | 0.1 to 1 | B (B represents 100-1000 nM) | 1 to 10
3 | Cc1cn2cc(-c3ccc4nc(C5CCNCC5)ccc4n3)c(O)cc2n1 [Compound 149] | 1 to 10 | 1 to 10 | 1 to 10 | 0.1 to 1 | > 10 | > 10 | > 10 | 1 to 10 | > 10 | C (C represents 1000-9999 nM) | > 10
4 | Cc1cn2nc(-c3ccc4nc(C5CCNCC5)ccc4n3)c(O)c2c(C)n1 [Compound 150] | < 0.1 | < 0.1 | < 0.1 | < 0.1 | < 0.1 | < 0.1 | < 0.1 | < 0.1 | < 0.1 | A (A represents <100 nM) | < 0.1
5 | c1c[nH]c(-c2ccc3nc(C4CCNCC4)ccc3n2)n1 [Compound 152] | > 10 | > 10 | > 10 | 1 to 10 | > 10 | > 10 | > 10 | > 10 | > 10 | D (D represents greater than 10 μM in K562 cells) | > 10
6 | Cn1cc2cc(-c3ccc4nc(N5CC[C@@H](NC(C)(C)C)C5)ccc4n3)c(O)cc2n1 [Compound 153] | < 0.1 | < 0.1 | < 0.1 | < 0.1 | < 0.1 | < 0.1 | < 0.1 | < 0.1 | < 0.1 | B (B represents 100-1000 nM) | < 0.1
7 | Cn1cc2cc(-c3ccc4nc(N5CC[C@H](NC(C)(C)C)C5)ccc4n3)c(O)cc2n1 [Compound 154] | < 0.1 | 0.1 to 1 | 0.1 to 1 | < 0.1 | < 0.1 | < 0.1 | < 0.1 | < 0.1 | < 0.1 | A (A represents <100 nM) | < 0.1
8 | Cn1cc2cc(-c3ccc4nc(N5CC[C@@H](NC6CCC6)C5)ccc4n3)c(O)cc2n1 [Compound 157] | < 0.1 | < 0.1 | < 0.1 | < 0.1 | 0.1 to 1 | < 0.1 | < 0.1 | < 0.1 | < 0.1 | B (B represents 100-1000 nM) | < 0.1
9 | Cn1cc2cc(-c3ccc4nc(N5CCC(NC6CC6)C5)ccc4n3)c(O)cc2n1 (stereo not shown) [Compound 158] | < 0.1 | < 0.1 | < 0.1 | < 0.1 | 0.1 to 1 | < 0.1 | < 0.1 | < 0.1 | < 0.1 | B (B represents 100-1000 nM) | < 0.1
10 | Cn1cc2cc(-c3ccc4nc(OC5CNC5)ccc4n3)c(O)cc2n1 [Compound 159] | 0.1 to 1 | 1 to 10 | 1 to 10 | 0.1 to 1 | 1 to 10 | 1 to 10 | 1 to 10 | 0.1 to 1 | 1 to 10 | C (C represents 1000-9999 nM) | 1 to 10
11 | Cn1cc2cc(-c3ccc4nc(N5CC[C@]67CCN[C@H]6CC[C@H]57)ccc4n3)c(O)cc2n1 [Compound 160] | 0.1 to 1 | 0.1 to 1 | 0.1 to 1 | < 0.1 | 0.1 to 1 | 0.1 to 1 | 0.1 to 1 | 0.1 to 1 | 0.1 to 1 | B (B represents 100-1000 nM) | 0.1 to 1
12 | Cn1cc2cc(-c3ccc4nc(N5CCC56CCNC6)ccc4n3)c(O)cc2n1 (stereo not shown) [Compound 162] | > 10 | > 10 | > 10 | 1 to 10 | > 10 | > 10 | > 10 | > 10 | > 10 | C (C represents 1000-9999 nM) | > 10
13 | CC(C)(C)NC1CCN(c2ccc3nc(-c4cc5cnccc5cc4O)ccc3n2)C1 (stereo not shown) [Compound 166] | > 10 | > 10 | > 10 | > 10 | 1 to 10 | > 10 | > 10 | > 10 | > 10 | B (B represents 100-1000 nM) | > 10
14 | Cn1cnc2cc(-c3ccc4nc(N5CCC(NC(C)(C)C)C5)ccc4n3)c(O)cc2c1=O (stereo not shown) [Compound 167] | > 10 | > 10 | > 10 | > 10 | > 10 | > 10 | > 10 | > 10 | > 10 | B (B represents 100-1000 nM) | > 10

More lines, main results first:

Row | IC50 (HTT) [µM] | IC50 (MYB mRNA; [1]) [µM] | IC50 (MYB mRNA; [2]) [µM] | IC50 (SMN2 mRNA) [µM] | IC50 (Target C) [µM] | IC50 (HTT mRNA; [3]) [µM] | IC50 (HTT mRNA; [4]) [µM] | IC50 (MYB) [µM] | Structure (SMILES) | AC50 (MYB mRNA; RT-qPCR) [µM] | Effect of Exemplary Compounds on Cell Viability, K562 (K562 cells) | AC50 (HTT mRNA; RT-qPCR) [µM]
15 | > 10 | > 10 | > 10 | > 10 | > 10 | > 10 | > 10 | > 10 | Cn1cc2cc(-c3ccc4cc(C5CCNCC5)c(F)cc4n3)c(O)cc2n1 [Compound 144] | > 10 | D (D represents greater than 10 μM in K562 cells) | > 10
16 | > 10 | > 10 | > 10 | > 10 | > 10 | > 10 | > 10 | > 10 | COc1cc2nn(C)cc2cc1-c1ccc2cc(C3CCNCC3)c(F)cc2n1 [Compound 145] | > 10 | D (D represents greater than 10 μM in K562 cells) | > 10
17 | > 10 | > 10 | > 10 | 1 to 10 | > 10 | > 10 | > 10 | > 10 | COc1cc2ccncc2cc1-c1ccc2nc(N3CCC(NC(C)(C)C)C3)ccc2n1 (stereo not shown) [Compound 161] | > 10 | C (C represents 1000-9999 nM) | > 10
18 | 1 to 10 | 1 to 10 | 1 to 10 | 0.1 to 1 | > 10 | > 10 | > 10 | 1 to 10 | Cn1cc2cc(-c3ccc4nc(N5CCC56CCCNC6)ccc4n3)c(O)cc2n1 (stereo not shown) [Compound 163] | 1 to 10 | C (C represents 1000-9999 nM) | > 10
19 | 0.1 to 1 | 0.1 to 1 | 0.1 to 1 | 0.1 to 1 | 0.1 to 1 | 0.1 to 1 | 0.1 to 1 | 0.1 to 1 | Cn1cc2cc(-c3ccc4nc(N5CCC56CCNCC6)ccc4n3)c(O)cc2n1 [Compound 164] | 0.1 to 1 | B (B represents 100-1000 nM) | 0.1 to 1
20 | 1 to 10 | 1 to 10 | 1 to 10 | 1 to 10 | 1 to 10 | 1 to 10 | 1 to 10 | 1 to 10 | Cn1cc2cc(-c3ccc4nc(N5CC(NC(C)(C)C)C5)ccc4n3)c(O)cc2n1 [Compound 165] | 1 to 10 | B (B represents 100-1000 nM) | 1 to 10
